Where two headings read alike, the source gives them in different places.
Experiments:
[1] = test system: breast cancer cell line ZR-75-1; assay: Inhibition of proliferation of breast cancer cell line ZR-75-1 (CellTiter-Glo); type: cell-based; settings: Homo sapiens, 240 h, proliferation of ZR-75-1 cells, 10 days of incubation, read-out: IC50 (KAT6A)
Description: Test Example 1: Experiment for Determining Inhibitory Effects of Compounds on Proliferation of Breast Cancer Cell Line ZR-75-1
ATP is an indicator of the metabolism of living cells. The CellTiter-Glo® Luminescent Cell Viability Assay is a homogeneous assay method for determining the number of viable cells by quantifying ATP.
• 1) ZR-75-1 (Cell Bank of Chinese Academy of Sciences, TCHul26) • 2) RPMI-1640 medium (Gibco, 11875-093) • 3) Fetal Bovine Serum, New Zealand (Gibco,10091-148) • 4) Penicillin-streptomycin (10,000 U/mL) (Gibco, 15140-122) • 5) Trypsin-EDTA (0.25%), containing phenol red (Gibco, 25200-072) • 6) DPBS (Shanghai BasalMedia, B210KJ) • 7) Corning® 96-well Clear Flat Bottom Ultra-Low Attachment Microplate (Corning, Cat. No. 3474) • 8) 330 μL 96 Holes Deep Well Plate, transparents, 96 Round Holes, V-shaped Bottom, Low Retention (Stellar Scientific, DP33VR-9-NS) • 9) Corning® 96-well solid white flat-bottom polystyrene microplate (Corning, Cat. No. 3917) • 10) CellTiter-Glo® Luminescent Cell Viability Assay (Promega, G7573) • 11) Countstar® BioMed automatic cell counter • 12) Trypan blue solution, 0.4% (Gibco, Cat. No. 15250061) • 13) 37° C. constant-temperature incubator (Thermo, FORMA STERI-CYCLE i160 LK) • 14) Biosafety cabinet (Thermo, 1379)
• 1) The formula of the complete medium for ZR-75-1 was as follows: 500 mL RPMI-1640+10% FBS+1% penicillin-streptomycin. • 2) Thirty minutes before cell plating, the complete medium, serum, trypsin, and DPBS for use in ZR-75-1 cell culture were pre-warmed in a water bath at 37° C. • 3) The ZR-75-1 cells were taken out of the incubator, and the medium was removed by pipetting. The cells were rinsed once with 5 mL of DPBS, and then the DPBS was discarded. • 4) The cells in the T75 culture flask were digested with 1-3 mL of (0.25%) trypsin-EDTA. After the trypsin was added, the culture flask was incubated in an incubator at 37° C. for 2-5 min, and dispersion was confirmed by microscopic examination. Tapping or agitating the culture flask was avoided to prevent disturbing the cells, which might cause cell clumping. • 5) 9 mL of the complete medium was added to terminate the digestion, thus forming a cell suspension, which was then mixed well by pipetting. • 6) Cell suspension counting: 20 μL of the cell suspension was pipetted and diluted with 20 µL of the 0.4% trypan blue solution (Gibco, Cat. No. 15250061). The total cell count and the percentage of cell viability were determined using the Countstar® BioMed automatic cell counter. Only cells with a cell viability of no less than 95% were used for the experiment. • 7) The concentration of the cell suspension was adjusted to 2000 cells/well, and the cell suspension was added to a 96-well cell culture plate at 80 μL/well. Treatment of Cells with Compounds • 1) Twenty-four hours after cell plating, the cell plate was taken out. • 2) Each compound was prepared with a complete medium. The stock solution was a 10 mM solution in DMSO, which was first diluted with the medium to 100 μM, then diluted to 1 μM, and finally subjected to a 5-fold serial dilution across a total of 9 concentration gradients. • 3) 20 μL of the compound diluted with the medium was added to each well of the cell culture plate, which already contained 80 μL of the medium. The final concentration started at 200 nM, followed by a 5-fold serial dilution across a total of 9 concentration gradients. Two replicate wells were set for each compound, and each plate could be used to test 3 compounds, with the DMSO content controlled within 0.5%. • 4) The culture medium was replenished once every three days with a complete medium containing the same concentration of the test compound, with 20 μL/well added each time.
After 10 days of incubation with the compound, the cell culture plate was taken out, and the CellTiter-Glo® reagent was added at 50 μL/well. […]

[2] = Pharmacokinetics in SD (Sprague Dawley) rats; type: in vivo; settings: rat, plasma, female SD rats; for half-life: read-out: T1/2 (half-life) (converted)
Description: Test Example 3: Determination of Pharmacokinetic Data of Compounds in SD (Sprague Dawley) Rats
The pharmacokinetic characteristics of some of the compounds of the present disclosure were evaluated by a pharmacokinetic experiment in SD rats.
Female SD rats aged 6-8 weeks from Shanghai Jihui Laboratory Animal Care Co., Ltd. were selected. The test animals were fasted overnight before administration, and feeding was resumed 4 h after administration. The compounds were dissolved in 5% DMSO+5% Tween 80+90% normal saline. For a single intravenous administration, the administration dose was 1 mg/kg, and the administration volume was 2 mL/kg. For a single intragastric administration, the administration dose was 2 mg/kg, and the administration volume was 10 mL/kg. Blood was collected at 0.083 h (for intravenous administration only), 0.25 h, 0.5 h, 1 h, 2 h, 4 h, 8 h, and 24 h after administration. At each indicated time point, about 150 μL of blood sample was collected from each rat via the vein and placed into an EDTA-K2 tube. Each sample was centrifuged (2000 g, 4° C., 5 min) within 15 min after sample collection to obtain plasma, which was then stored at −70° C. until analysis. The concentration of the corresponding test compound in the SD rat plasma was determined using UPLC-MS/MS.

Row | IC50 [1] | Compound | also measured
1 | 0.5 to 2 nM | COc1ccc2c(c1S(=O)(=O)Nc1noc3cc(Cn4cccn4)c(F)c(OC)c13)OCCC21CCC1 [Compound 72, N-(6-((1H-Pyrazol-1-yl)methyl)-5-fluoro-4-methoxybenzo[d]isoxazol-3-yl)-7-methoxyspiro[chromane-4,1′-cyclobutane]-8-sulfonamide] | –
2 | 0.5 to 2 nM | COc1ccc2c(c1S(=O)(=O)Nc1noc3cc(Cn4cccn4)c(F)c(OC)c13)OCCC21CCCC1 [Compound 73, N-(6-((1H-Pyrazol-1-yl)methyl)-5-fluoro-4-methoxybenzo[d]isoxazol-3-yl)-7-methoxyspiro[chromane-4,1′-cyclopentane]-8-sulfonamide] | –
3 | 0.5 to 2 nM | COc1ccc2c(c1S(=O)(=O)Nc1noc3cc(Cn4cccn4)cc(OC)c13)OCCC2(F)F [Compound 102, N-(6-((1H-Pyrazol-1-yl)methyl)-4-methoxybenzo[d]isoxazol-3-yl)-4,4-difluoro-7-methoxychromane-8-sulfonamide] | –
4 | 10 to 50 nM | COc1cc(Cn2cccn2)cc2onc(NS(=O)(=O)c3c(F)ccc4c3OCCC4(F)F)c12 [Compound 103, N-(6-((1H-Pyrazol-1-yl)methyl)-4-methoxybenzo[d]isoxazol-3-yl)-4,4,7-trifluorochromane-8-sulfonamide] | –
5 | < 0.5 nM | COc1ccc2c(c1S(=O)(=O)Nc1noc3cc(Cn4cccn4)c(F)c(OC)c13)OCCC2(F)F [Compound 104, N-(6-((1H-Pyrazol-1-yl)methyl)-5-fluoro-4-methoxybenzo[d]isoxazol-3-yl)-4,4-difluoro-7-methoxychromane-8-sulfonamide] | AUC(0-inf) ([2]; iv, i.v. 1 mg/kg): 4200 ng·h/mL; clearance ([2]; iv, i.v. 1 mg/kg, read-out: CL (clearance rate)): 3.98 mL/min/kg; half-life ([2]; iv, i.v. 1 mg/kg): 2.83 h; Vd ([2]; iv, i.v. 1 mg/kg, read-out: Vdss (apparent volume of distribution)): 0.705 L/kg; AUC(0-inf) ([2]; po, p.o. 2 mg/kg): 6110 ng·h/mL; bioavailability ([2]; po, p.o. 2 mg/kg, read-out: F (bioavailability)): 72.7%; half-life ([2]; po, p.o. 2 mg/kg): 2.13 h
6 | 10 to 50 nM | COc1c(F)c(Cn2cccn2)cc2onc(NS(=O)(=O)c3c(F)ccc4c3OCCC4(F)F)c12 [Compound 105, N-(6-((1H-Pyrazol-1-yl)methyl)-5-fluoro-4-methoxybenzo[d]isoxazol-3-yl)-4,4,7-trifluorochromane-8-sulfonamide] | –
7 | < 0.5 nM | COc1ccc2c(c1S(=O)(=O)Nc1noc3cc(Cn4cccn4)c(F)c(OC)c13)OCC=C2C [Compound 106, N-(6-((1H-Pyrazol-1-yl)methyl)-5-fluoro-4-methoxybenzo[d]isoxazol-3-yl)-7-methoxy-4-methyl-2H-chromene-8-sulfonamide] | –
8 | 0.5 to 2 nM | COc1ccc2c(c1S(=O)(=O)Nc1noc3cc(Cn4cccn4)c(F)c(OC)c13)OCCC2O (stereo not drawn) [Compound 107, N-(6-((1H-Pyrazol-1-yl)methyl)-5-fluoro-4-methoxybenzo[d]isoxazol-3-yl)-4-hydroxy-7-methoxychromane-8-sulfonamide] | –
9 | < 0.5 nM | COc1ccc2c(c1S(=O)(=O)Nc1noc3cc(Cn4cccn4)c(F)c(OC)c13)OCCN2 [Compound 111, N-(6-((1H-Pyrazol-1-yl)methyl)-5-fluoro-4-methoxybenzo[d]isoxazol-3-yl)-7-methoxy-3,4-dihydro-2H-benzo[b][1,4]oxazine-8-sulfonamide] | –
10 | 2 to 10 nM | COc1ccc2c(c1S(=O)(=O)Nc1noc3cc(Cn4cccn4)c(F)c(OC)c13)OCCN2Cc1ccccc1 [Compound 112, N-(6-((1H-Pyrazol-1-yl)methyl)-5-fluoro-4-methoxybenzo[d]isoxazol-3-yl)-4-benzyl-7-methoxy-3,4-dihydro-2H-benzo[b][1,4]oxazine-8-sulfonamide] | –
11 | 2 to 10 nM | COc1ccc2c(c1S(=O)(=O)Nc1noc3cc(Cn4cccn4)c(F)c(OC)c13)OCCN2CC(F)(F)F [Compound 120, N-(6-((1H-Pyrazol-1-yl)methyl)-5-fluoro-4-methoxybenzo[d]isoxazol-3-yl)-7-methoxy-4-(2,2,2-trifluoroethyl)-3,4-dihydro-2/-benzo[b][1,4]oxazine-8-sulfonamide] | –
12 | 0.5 to 2 nM | COc1cccc(OC)c1S(=O)(=O)Nc1noc2cc(Cn3cccn3)c(F)c(OC)c12 [PF-0128, reference compound] | –
13 | 0.5 to 2 nM | COc1cccc(OC)c1S(=O)(=O)Nc1noc2cc(Cn3cccn3)cc(OC)c12 [PF-9363, reference compound] | –

Row | Compound | IC50 [1] | also measured
14 | COc1c(F)c(Cn2cccn2)cc2onc(NS(=O)(=O)c3ccccc3OC3CCC3)c12 [Compound 108, N-(6-((1H-Pyrazol-1-yl)methyl)-5-fluoro-4-methoxybenzo[d]isoxazol-3-yl)-2-cyclobutoxybenzenesulfonamide] | 0.5 to 2 nM | –

Source: patent US20260174778A1, “SULFONAMIDE COMPOUND, AND PREPARATION METHOD THEREFOR AND USE THEREOF” (SHANGHAI HENLIUS BIOTECH, INC., priority 2023, published 2026)
